According to patent US4637902A, “Mixed anhydrides of carbamic and hydroxamic acids” (Fuji Photo Film Co., Ltd., priority 1983, dated 1987):

Test: Measurement of Decomposition Rate of Base Precursor (gelatin film on triacetyl cellulose, absorbance change)
Type: physicochemical
Settings: for Half-Life Period t1/2: 140° C.; for K at 140° C. (× 10^2), first-order reaction rate constant: head multiplier × 10^2
Procedure: Measurement of Decomposition Rate of Base Precursor About 400 mg of the base precursor of the present invention was dissolved in 25 ml of methanol. Separately, 400 mg of gelatin was dissolved in 5 ml of water with heating. After cooling, 5 ml of the above-described methanol solution was added thereto and the mixture well mixed. The resulting mixture solution was uniformly coated on a triacetyl cellulose support and dried to prepare samples. The absorbance of each of the samples at λ max (around 300 nm) was previously measured, then the sample was heated on a hot plate at a definite temperature. The change in absorbance versus time was plotted to calculate first-order reaction rate. Several examples of the reaction rate constants measured by the above-described method are given below.

CN(C)C(=O)ONC(=O)c1ccccc1O [Base Precursor No. (1), Salicylhydroxamic Acid, N,N-Dimethylcarbamate]
Half-Life Period t1/2: 10.3 s
K at 140° C. (× 10^2), first-order reaction rate constant: 6.7

CCN(CC)C(=O)ONC(=O)c1ccccc1O [Base Precursor No. (37)]
Half-Life Period t1/2: 18.7 s
K at 140° C. (× 10^2), first-order reaction rate constant: 3.7

CCCCN(CCCC)C(=O)ONC(=O)c1ccccc1O [Base Precursor No. (38), Salicylhydroxamic Acid N,N-Dibutylcarbamate]
Half-Life Period t1/2: 7.7 s
K at 140° C. (× 10^2), first-order reaction rate constant: 9.0
